“Also recorded” adds a separate entry of the source.
Columns and labels:
artery = test: Arterial compression with other photoactivated material; details: FIG. 13
Protocol: Singlet oxygen generating species, such as Rose Bengal, riboflavin, and methylene blue were tested to determine if they would be effective at arterial compression.

[1] = test system: hard and soft plaque from common and lower femoral artery; test: Tissue immersion: plaque hardness by manual manipulation with forceps; set-up: species or system human; details: PBS pH 7.4
From the text: A sample of human tissue from the common and lower femoral artery was received. It was stored in saline and refrigerated until use. Based upon visual and tactile observations, the arteries were approximately 7-8 mm in diameter and contained evidence of both hard and soft plaque. The soft plaque has a yellow fatty appearance that is distinguishable from the vessel wall. The hard plaque presents itself as hard pieces of material that can be pulled (with a forceps) from the soft plaque. Sections of the artery suitable for catheter work were segregated and stored in phosphate buffered saline (PBS), pH=7.4. From the remaining arterial sections, pieces of tissue containing both hard and soft plaque were removed. These pieces were either placed in a solution of PBS (pH=7.4), or dimeric naphthalimide, such as a compound of formula (V) (which is in PBS, pH=7.4). Prior to immersion in either solution the relative hardness of the plaque was evaluated via manual manipulation with a forcep. After a 5 minute soak in solution (typical exposure time), no difference in the samples soaked in PBS was noticed (control). […] The samples were then left in their respective solutions for an additional 90 minutes.

artery tissue = test: Angioplasty with plaque-softening composition and photoactivation: fissure observation; set-up: species or system human
Protocol: The tissue was an artery approximately 7.4 mm in diameter. An Ultra-thin SDS 8 mm×30 mm catheter was used to dilate the artery to 7.55 mm (approximately a 2% overstretch). A fissure or a possible dissection running down the length of the tissue sample was observed.
A section (6.5 cm in length) of artery was exposed to the composition for 5 minutes. An 80 mm catheter was used to impart a 2% overstretch to the artery. The angioplasty was followed by photoactivation at 1800 mW for 60 seconds using the same 80 mm catheter with a 60 mm light fiber centered in the catheter.
A catheter with an 80 mm treatment zone balloon was used however the photoactivating light fiber was only 60 mm in length. During activation it was noted that the light fiber was shifted distally in the catheter. This meant that the distal end of the artery was receiving photoactivation, however, the proximal end received little or no light. A fissure down the length of the artery was again observed.

[2] = Storage stability of naphthalimide dimer (solution and powder); assay type: physicochemical
From the text: A preparative HPLC approach was used to isolate and specifically purify the compound of formula (V) dimer from the compound of formula (V) naphthalimide product produced from the ethanol crystallization. The HPLC method used was based on the purity method outlined above; however, method modifications were made to replace acetonitrile with ethanol and TFA with acetic acid in the mobile phase. The preparative separation utilized a C18 column (X-bridge, 10 μm, 19×250 mm, Waters). The mobile phase consisted of mobile phase A, 0.1% acetic acid (aq), and mobile phase B, 9:1 ethanol:water (0.1% v/v acetic acid). The column was pre-equilibrated at a starting mobile phase of 95% A:5% B for 20 minutes, at the start of the gradient was a 2 minute hold followed by a linear gradient to 90% B at 40 minutes and a 10 minute hold. An injection volume of 8.5 mL (12 mg/mL purified compound of formula (V)) and flow rate of 8.5 mL/minute were used as well as a detector wavelength of 440 nm. The compound of formula (V) fractions were collected and analyzed using the analytical purity method presented above. Fractions meeting a minimum purity criterion were combined and the solvent driven off by rotovapping the solution to dryness. […] Finally the product was quantitatively transferred from the round bottom flask to a freeze drying flask by dissolving the product in a minimal amount of deionized water. […]

[3] = test system: hard (calcified) and soft plaque in diseased arteries; test: Plaque penetration: diseased arteries soaked with plaque softening composition, light activated, visual and histological examination; set-up: species or system human
Protocol: Diseased arteries were obtained from limb amputations (leg) due to advanced Periperal Arterial Disease (PAD) from patients at Avera McKennan hospital. The received arteries were evaluated and chosen such that the diseased section was of reasonable size to accommodate the treatment catheter balloon length being used. The catheter balloon diameter used was also matched to the diameter of the artery and capable of achieving a 1:1.25 (ratio of artery diameter to balloon diameter) overstretch. The artery was laid in a petri dish and an angioplasty balloon was inserted and inflated for 60 seconds to impart the desired overstretch. While the angioplasty balloon was inflated a permanent marker was used to define the treatment zone (where the overstretch was imparted by the balloon) on the outer surface of the artery. The angioplasty balloon was deflated and removed. The inner lumen of the diseased artery was exposed to a plaque softening composition comprising a compound of formula (V) naphthalimide formulation (2 mg/mL in phosphate buffered saline, pH=7.4) for a period of 5 minutes. For the purpose of filling the artery, one end was clamped, the artery was held upright and a syringe was used to dispense the naphthalimide solution until the inner lumen was filled. The open end of the artery was then clamped and the soaking period of 5 minutes commenced. […] Arteries were cut open lengthwise and the treated section was evaluated by visual examination.
Prior to cutting the artery for visual examination samples from the treated and untreated sections were collected and preserved for histological examination. […] After this time, samples were stored in a −80° C. freezer until ready for further analysis. […] The crystalline nature of hard plaque is readily visible without staining. Under this magnification the crystalline structure of the calcific plaque was readily visible, as shown in FIG. 8 the dark area between the two lighter colored areas of the media. […]

[4] = 2 mg/mL in PBS pH 7.4, 5 minute soak, 447 nm light activation 60 seconds

O=C([O-])c1c(Cl)c(Cl)c(Cl)c(Cl)c1-c1c2cc(I)c(=O)c(I)c-2oc2c(I)c([O-])c(I)cc12.[Na+].[Na+] [Rose Bengal]
efficacy at arterial compression (artery): No efficacy

NCCOCCOCCNc1ccc2c3c(cccc13)C(=O)N(CCOCCOCCN1C(=O)c3cccc4c(NCCOCCOCCN)ccc(c34)C1=O)C2=O [compound of formula (V)]
plaque hardness after soak ([1]; 5 minute soak in solution): slight softening
plaque hardness after soak ([1]; additional 90 minutes in solution): significantly softer and more pliable
repair of fissure (artery tissue; angioplasty then composition, distal region with adequate photoactivation): there appeared to be a seam indicating repair
fissure in opened artery (artery tissue; composition 5 minutes, then angioplasty 2% overstretch, photoactivation 1800 mW 60 seconds): no fissure observed
degradation of dimer in powder form ([2]; periods exceeding one year of storage in a dessicator at room temperature): no evidence of degradation
stability of dimer solution ([2]; solution at pH 7.4, periods up to one year): excellent stability
tacking of intimal flaps [3, 4]: definitive observation of tacking of intimal flaps
visual/tactile observation of plaque in treated region [3, 4]: apparent softened plaque; also recorded: looked and felt softer and creamier
calcium crystals in treated sections under microscope ([3]; treated vs untreated sections of artery): less evidence of calcium crystals

CN(C)c1ccc2nc3ccc(=[N+](C)C)cc-3sc2c1 [methylene blue]
efficacy at arterial compression (artery): No efficacy

Cc1cc2nc3c(=O)[nH]c(=O)nc-3n(C[C@H](O)[C@H](O)[C@H](O)CO)c2cc1C [riboflavin]
efficacy at arterial compression (artery): No efficacy
